Measurements reported in patent publication US10053433B2, “Androgen receptor antagonists” (THE REGENTS OF THE UNIVERSITY OF CALIFORNIA, priority 2014, dated 2018).
Like-named read-outs stand apart in the source and are kept apart here.

Tests used:
[1] = biological target: endogenous full length AR (Homo sapiens (Human), UniProt P10275, T878A); test: mmTV-luciferase reporter assay, endogenous AR in LNCaP cells; format: cell-based; details: 10 nM DHT, read-out: LVCaP data
full length AR = full length AR (Homo sapiens (Human), UniProt P10275); test: mmTV-luciferase reporter assay, full length AR in HeLa cells; format: cell-based
Procedure: In order to test the effect of antiandrogens on full length AR, a mmTV-luciferase reporter assay was used. An AR-response element is contained within the mmTV sequence and drives the expression of luciferase. The effect of antiandrogens (competitive antagonists) on this process is measured by quantifying the amount of luciferase activity after 24 hours in the presence of varying concentrations of antiandrogens. From these values, an IC50 for each antagonist is calculated. Experimentally, HeLa cells were maintained in Dulbecco's modified Eagle's medium H-21 4.5 g/L glucose, containing 10% steroid depleted fetal bovine serum, 50 units/mL penicillin. For transfection, (1×10^5) cells per well were plated and incubated overnight. […] Cells were induced with 1 nM DHT and 0.1 nM-30 uM compounds after 3 hrs and then incubated overnight. Cells were collected, and pellets were lysed in 100 μL of 100 mM Tris-HCl (pH 7.5) containing 0.1% Triton X-100. Luciferase and β-galactosidase activities were measured using the Luciferase Assay System (Promega) and Galacto-Light Plus-galactosidase reporter gene assay system (Applied Biosystems), according to the manufacturer's instructions.

[2] = biological target: AR ligand-binding domain (AR LBD) (Homo sapiens (Human), UniProt P10275); test: Gal4-luciferase reporter assay, Gal-AR LBD in HeLa cells; format: cell-based
Excerpt: In order to test the effect of ligands on the AR ligand-binding domain (AR LBD), a Gal4-luciferase reporter assay was used. Briefly, the AR LBD is expressed as a fusion with the Gal4 transcription factor, which binds to the Gal4 reporter DNA. Upon activation with agonist hormone (DHT), the Gal-AR LBD binds to the Gal4 reporter gene, which in turn drives the transcription (and subsequently translation) of the reporter luciferase. The effect of antiandrogens (competitive antagonists) on this process is measured by quantifying the amount of luciferase activity after 24 hours in the presence of varying concentrations of antiandrogens. From these values, an IC50 for each antagonist is calculated. Experimentally, Hela cells were maintained in Dulbecco's modified Eagle's medium H-21 4.5 g/L glucose, containing 10% steroid depleted fetal bovine serum, 50 units/mL penicillin. For transfection, (1×10^5) cells per well were plated and incubated overnight. […] Cells were induced with 1 nM DHT and 0.1 nM-30 uM test compounds after 3 hr and then incubated over night. Cells were collected, and pellets were lysed in 100 μL of 100 mM Tris-HCl (pH 7.5) containing 0.1% Triton X-100. Luciferase and β-galactosidase activities were measured using the Luciferase Assay System (Promega) and Galacto-Light Plus-galactosidase reporter gene assay system (Applied Biosystems), according to the manufacturer's instructions.

[3] = in vivo; cited from earlier work
[4] = full length AR, mmTV-luciferase reporter, HeLa cells, 1 nM DHT, read-out: FL IC50
[5] = in relationship to the experimental casodex data
[6] = Gal-AR LBD, Gal4-luciferase reporter, HeLa cells, 1 nM DHT, read-out: LBD IC50

Chain of full length AR (P10275 other isoform, or with tags, fused parts or gaps): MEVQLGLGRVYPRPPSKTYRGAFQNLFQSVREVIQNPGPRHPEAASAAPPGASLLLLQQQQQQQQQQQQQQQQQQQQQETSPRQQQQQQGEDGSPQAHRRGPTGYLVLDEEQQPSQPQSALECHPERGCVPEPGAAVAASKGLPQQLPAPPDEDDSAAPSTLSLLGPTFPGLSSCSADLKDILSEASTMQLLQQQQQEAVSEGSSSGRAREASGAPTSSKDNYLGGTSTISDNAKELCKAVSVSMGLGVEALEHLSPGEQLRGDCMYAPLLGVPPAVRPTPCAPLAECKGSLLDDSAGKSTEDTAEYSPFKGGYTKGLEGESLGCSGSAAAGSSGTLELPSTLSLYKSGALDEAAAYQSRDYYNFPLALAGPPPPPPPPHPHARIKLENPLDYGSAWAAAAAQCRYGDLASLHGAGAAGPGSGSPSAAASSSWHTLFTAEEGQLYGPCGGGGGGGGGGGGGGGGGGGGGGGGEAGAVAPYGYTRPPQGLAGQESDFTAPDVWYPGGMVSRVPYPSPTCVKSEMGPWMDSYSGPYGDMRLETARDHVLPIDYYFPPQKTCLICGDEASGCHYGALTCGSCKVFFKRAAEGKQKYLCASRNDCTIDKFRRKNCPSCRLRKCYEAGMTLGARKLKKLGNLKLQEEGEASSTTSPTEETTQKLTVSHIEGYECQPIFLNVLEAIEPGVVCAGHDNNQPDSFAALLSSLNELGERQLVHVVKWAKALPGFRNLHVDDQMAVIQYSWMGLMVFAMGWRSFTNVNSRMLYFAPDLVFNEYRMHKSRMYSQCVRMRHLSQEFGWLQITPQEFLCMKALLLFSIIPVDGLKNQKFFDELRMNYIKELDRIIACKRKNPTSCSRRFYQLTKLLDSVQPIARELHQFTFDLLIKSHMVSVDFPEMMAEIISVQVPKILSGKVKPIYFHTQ
Chain of AR ligand-binding domain (AR LBD) (P10275 669-900): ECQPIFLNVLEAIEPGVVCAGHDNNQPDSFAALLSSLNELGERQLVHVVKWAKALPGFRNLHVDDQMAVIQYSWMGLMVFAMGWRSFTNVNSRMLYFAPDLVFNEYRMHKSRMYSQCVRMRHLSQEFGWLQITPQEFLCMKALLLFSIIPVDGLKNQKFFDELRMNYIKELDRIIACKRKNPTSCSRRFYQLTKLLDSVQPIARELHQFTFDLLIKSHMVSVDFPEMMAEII
Chain of endogenous full length AR (P10275 whole entry T878A): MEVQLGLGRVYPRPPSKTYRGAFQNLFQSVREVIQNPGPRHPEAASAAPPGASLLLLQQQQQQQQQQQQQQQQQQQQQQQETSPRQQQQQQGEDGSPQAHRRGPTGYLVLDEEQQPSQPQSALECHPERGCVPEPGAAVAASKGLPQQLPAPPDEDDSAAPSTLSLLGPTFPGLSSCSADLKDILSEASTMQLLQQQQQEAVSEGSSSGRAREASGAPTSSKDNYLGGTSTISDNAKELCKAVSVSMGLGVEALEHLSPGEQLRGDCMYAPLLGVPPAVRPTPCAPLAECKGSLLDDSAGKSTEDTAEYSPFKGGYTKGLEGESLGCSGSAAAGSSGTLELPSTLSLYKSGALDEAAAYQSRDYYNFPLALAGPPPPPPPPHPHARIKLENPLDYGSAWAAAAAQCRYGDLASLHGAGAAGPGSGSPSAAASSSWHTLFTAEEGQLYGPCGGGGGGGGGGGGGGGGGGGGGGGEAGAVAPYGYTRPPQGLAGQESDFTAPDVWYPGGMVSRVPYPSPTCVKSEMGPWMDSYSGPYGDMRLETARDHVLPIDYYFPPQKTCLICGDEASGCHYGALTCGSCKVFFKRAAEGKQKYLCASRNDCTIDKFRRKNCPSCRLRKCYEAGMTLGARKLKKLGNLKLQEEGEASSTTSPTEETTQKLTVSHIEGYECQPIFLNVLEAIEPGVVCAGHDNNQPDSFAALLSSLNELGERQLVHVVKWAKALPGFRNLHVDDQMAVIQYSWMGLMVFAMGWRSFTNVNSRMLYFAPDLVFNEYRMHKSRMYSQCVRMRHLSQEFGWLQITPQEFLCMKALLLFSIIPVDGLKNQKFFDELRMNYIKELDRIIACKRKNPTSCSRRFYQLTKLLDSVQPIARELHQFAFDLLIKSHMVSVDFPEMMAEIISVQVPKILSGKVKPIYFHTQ

SMILES | IC50 (full length AR; [4]) | Fold chg (FL) (full length AR; [5]) | IC50 [2, 6] | Fold change* ([2]; Table 4, relative to CDX) | Fold chg (LBD) [2, 5] | IC50 [2] | also measured
C[C@](O)(CS(=O)(=O)c1ccc(F)cc1)C(=O)Nc1cccc(C(F)(F)F)c1 [FC 4.116] | 71.7 µM | 0.014 | 2.53 ± 1.16 µM | 0.14 | 0.14 | – | IC50 [1]: 0.53 ± 0.27 µM
C[C@](O)(CS(=O)(=O)c1ccc(F)cc1)C(=O)Nc1ccc([N+](=O)[O-])c(C(F)(F)F)c1 [FC 4.127] | – | – | – | – | – | 7.26 ± 10.7 µM | Fold chg (FL) (full length AR): 0.11; IC50 (full length AR): 8.74 ± 15.8 µM; Fold change* [2]: 0.05; Fold chg (LBD) [2]: 0.050
CC(O)(CS(=O)(=O)c1ccc(F)cc1)C(=O)Nc1ccc(C#N)c(C(F)(F)F)c1 (stereo not shown) [bicalutamide] | – | – | – | – | – | – | tolerability [3]: well tolerated with very few side effects
C[C@](O)(CS(=O)(=O)c1ccc(F)cc1)C(=O)Nc1cc(C(F)(F)F)ccn1 [FC 4.125] | – | – | – | 0.016 | 0.016 | 22.4 ± 41.8 µM | –
C=CS(=O)(=O)C(c1ccc(NC(=O)[C@@](C)(O)CS(=O)(=O)c2ccc(F)cc2)cc1C(F)(F)F)S(=O)(=O)C=C [FC 4.025] | 1.29 ± 1.29 µM | 0.78 | 0.58 ± 0.11 µM | – | 0.62 | – | –
C[C@](O)(CS(=O)(=O)c1ccc(F)cc1)C(=O)Nc1cncc(C(F)(F)F)c1 [FC 4.126] | 12.4 ± 14.2 µM | 0.08 | 1.55 ± 0.41 µM | 0.23 | 0.23 | – | IC50 [1]: 0.11 ± 0.02 µM
C=CC(=O)Nc1ccc(NC(=O)[C@@](C)(O)CS(=O)(=O)c2ccc(F)cc2)cc1C(F)(F)F [FC 4.039] | – | – | 0.75 ± 0.26 µM | – | 0.48 | – | –
C[C@](O)(CS(=O)(=O)c1ccc(F)cc1)C(=O)Nc1cc(C(F)(F)F)c(C#N)cn1 [FC 3.077] | – | – | – | – | – | 0.49 ± 0.06 µM | Fold chg (FL) (full length AR): 0.33; Fold change* [2]: 0.74; Fold chg (LBD) [2]: 0.74
